Test system: 299254-011-R-J1-PDC complex spheroid viability
Test: Anticancer human tumor 299254-011-R-J1-PDC patient-derived melanoma cell line growth inhibition [POLQ]
Conditions: for IC50: curve of first compound; for viability, T/C: stronger effect = lower value
Summary of the method: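 Complex spheroid viability model combining PDC tumour cells with endothelial (HUVEC) and MSC stromal cells. Novobiocin, ART-558 or RP6685 were tested singly and in combination with standard and investigational anticancer drugs. Each was titrated in half-log steps from near clinical Cmax, or from 10 microM where Cmax was unknown.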

[1] = second compound 0.0316 µM, first compound 0.0316 µM
[2] = second compound 0.0316 µM, first compound 0.1 µM
[3] = second compound 0.0316 µM, first compound 0.316 µM
[4] = second compound 0.0316 µM, first compound 1 µM
[5] = second compound 0.0316 µM, first compound 3.16 µM
[6] = second compound 0.0316 µM, first compound 10 µM
[7] = second compound 0.1 µM, first compound 0.0316 µM
[8] = second compound 0.1 µM, first compound 0.1 µM
[9] = second compound 0.1 µM, first compound 0.316 µM
[10] = second compound 0.1 µM, first compound 1 µM
[11] = second compound 0.1 µM, first compound 3.16 µM
[12] = second compound 0.1 µM, first compound 10 µM
[13] = second compound 0.316 µM, first compound 0.0316 µM
[14] = second compound 0.316 µM, first compound 0.1 µM
[15] = second compound 0.316 µM, first compound 0.316 µM
[16] = second compound 0.316 µM, first compound 1 µM
[17] = second compound 0.316 µM, first compound 3.16 µM
[18] = second compound 0.316 µM, first compound 10 µM
[19] = second compound 1 µM, first compound 0.0316 µM
[20] = second compound 1 µM, first compound 0.1 µM
[21] = second compound 1 µM, first compound 0.316 µM
[22] = second compound 1 µM, first compound 1 µM
[23] = second compound 1 µM, first compound 3.16 µM
[24] = second compound 1 µM, first compound 10 µM
[25] = second compound 3.16 µM, first compound 0.0316 µM
[26] = second compound 3.16 µM, first compound 0.1 µM
[27] = second compound 3.16 µM, first compound 0.316 µM
[28] = second compound 3.16 µM, first compound 1 µM
[29] = second compound 3.16 µM, first compound 3.16 µM
[30] = second compound 3.16 µM, first compound 10 µM
[31] = second compound 10 µM, first compound 0.0316 µM
[32] = second compound 10 µM, first compound 0.1 µM
[33] = second compound 10 µM, first compound 0.316 µM
[34] = second compound 10 µM, first compound 1 µM
[35] = second compound 10 µM, first compound 3.16 µM
[36] = second compound 10 µM, first compound 10 µM
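Also: spheroids exposed to drugs for one week before measurement.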
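For viability, T/C in this document: percent viability relative to DMSO vehicle control taken as 100%.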

With `CC1COCCN1c1cc(C2(O)CC3CCC(C2)O3)c2cnn(-c3ccn[nH]3)c2n1` (stereo unspecified) + COC1C(OC(N)=O)C(O)C(Oc2ccc3c(O)c(NC(=O)c4ccc(O)c(CC=C(C)C)c4)c(=O)oc3c2C)OC1(C)C the IC50 (second compound 0.0316 µM) was 136 nM, the IC50 (second compound 0.1 µM) was 182 nM and the IC50 (second compound 0.316 µM) was 206 nM. The IC50 (second compound 1 µM) was 163 nM, the IC50 (second compound 3.16 µM) was 159 nM and the IC50 (second compound 10 µM) was 176 nM. The viability, T/C [1] was 102%, the viability, T/C [2] was 53.5% and the viability, T/C [3] was 35.8%. The viability, T/C [4] was 20.7%, the viability, T/C [5] was 14.8% and the viability, T/C [6] was 11.1%. It also gave a viability, T/C [7] of 86.4%, a viability, T/C [8] of 64.8% and a viability, T/C [9] of 36.6%. For the same compound, the viability, T/C [10] was 18.9%, the viability, T/C [11] was 16.8% and the viability, T/C [12] was 11.5%. For the same compound, the viability, T/C [13] was 88.9%, the viability, T/C [14] was 75.6% and the viability, T/C [15] was 34%. The viability, T/C [16] was 20.4%, the viability, T/C [17] was 14% and the viability, T/C [18] was 11.6%. The viability, T/C [19] was 109%, the viability, T/C [20] was 56.5% and the viability, T/C [21] was 37.4%. It also gave a viability, T/C [22] of 27.1%, a viability, T/C [23] of 15.6% and a viability, T/C [24] of 10.2%. It also gave a viability, T/C [25] of 91.5%, a viability, T/C [26] of 61.1% and a viability, T/C [27] of 33.1%. The viability, T/C [28] was 20.4%, the viability, T/C [29] was 13% and the viability, T/C [30] was 11.1%. The viability, T/C [31] was 87.6%, the viability, T/C [32] was 60.5% and the viability, T/C [33] was 40.7%. The viability, T/C [34] was 17.9%, the viability, T/C [35] was 16.6% and the viability, T/C [36] was 10.2%.
With `CC(=O)O[C@H]1C(=O)[C@@]2(C)[C@H]([C@H](OC(=O)c3ccccc3)[C@]3(O)C[C@H](OC(=O)[C@H](O)[C@@H](NC(=O)c4ccccc4)c4ccccc4)C(C)=C1C3(C)C)[C@]1(OC(C)=O)CO[C@@H]1C[C@@H]2O` + Cc1cccc(N(C)C(=O)C2C(O)CCN2c2nc(C)cc(C(F)(F)F)c2C#N)c1 the IC50 (second compound 0.0316 µM) was 123 nM, the IC50 (second compound 0.1 µM) was 91.7 nM and the IC50 (second compound 0.316 µM) was 69.8 nM. The IC50 (second compound 1 µM) was 73.4 nM, the IC50 (second compound 3.16 µM) was 26.8 nM and the IC50 (second compound 10 µM) was < 9.49 nM. The viability, T/C (second compound 0.0316 µM, first compound 0.00949 µM) was 99.2%, the viability, T/C (second compound 0.0316 µM, first compound 0.03 µM) was 79.7% and the viability, T/C (second compound 0.0316 µM, first compound 0.0949 µM) was 55.1%. For the same compound, the viability, T/C (second compound 0.0316 µM, first compound 0.3 µM) was 35.7%, the viability, T/C (second compound 0.0316 µM, first compound 0.949 µM) was 22% and the viability, T/C (second compound 0.0316 µM, first compound 3 µM) was 24.4%. For the same compound, the viability, T/C (second compound 0.1 µM, first compound 0.00949 µM) was 84.3%, the viability, T/C (second compound 0.1 µM, first compound 0.03 µM) was 70.7% and the viability, T/C (second compound 0.1 µM, first compound 0.0949 µM) was 49.6%. For the same compound, the viability, T/C (second compound 0.1 µM, first compound 0.3 µM) was 31.3%, the viability, T/C (second compound 0.1 µM, first compound 0.949 µM) was 23.2% and the viability, T/C (second compound 0.1 µM, first compound 3 µM) was 20.7%. It also gave a viability, T/C (second compound 0.316 µM, first compound 0.00949 µM) of 90.2%, a viability, T/C (second compound 0.316 µM, first compound 0.03 µM) of 68.6% and a viability, T/C (second compound 0.316 µM, first compound 0.0949 µM) of 41.7%. For the same compound, the viability, T/C (second compound 0.316 µM, first compound 0.3 µM) was 33.1%, the viability, T/C (second compound 0.316 µM, first compound 0.949 µM) was 29.8% and the viability, T/C (second compound 0.316 µM, first compound 3 µM) was 23.4%. For the same compound, the viability, T/C (second compound 1 µM, first compound 0.00949 µM) was 84.9%, the viability, T/C (second compound 1 µM, first compound 0.03 µM) was 69.2% and the viability, T/C (second compound 1 µM, first compound 0.0949 µM) was 43.4%. It also gave a viability, T/C (second compound 1 µM, first compound 0.3 µM) of 31.6%, a viability, T/C (second compound 1 µM, first compound 0.949 µM) of 21.3% and a viability, T/C (second compound 1 µM, first compound 3 µM) of 23.2%. It also gave a viability, T/C (second compound 3.16 µM, first compound 0.00949 µM) of 68.5%, a viability, T/C (second compound 3.16 µM, first compound 0.03 µM) of 48% and a viability, T/C (second compound 3.16 µM, first compound 0.0949 µM) of 33.8%. For the same compound, the viability, T/C (second compound 3.16 µM, first compound 0.3 µM) was 27.5%, the viability, T/C (second compound 3.16 µM, first compound 0.949 µM) was 21.7% and the viability, T/C (second compound 3.16 µM, first compound 3 µM) was 21.4%. It also gave a viability, T/C (second compound 10 µM, first compound 0.00949 µM) of 49%, a viability, T/C (second compound 10 µM, first compound 0.03 µM) of 31.2% and a viability, T/C (second compound 10 µM, first compound 0.0949 µM) of 20.4%. It also gave a viability, T/C (second compound 10 µM, first compound 0.3 µM) of 23.2%, a viability, T/C (second compound 10 µM, first compound 0.949 µM) of 22.7% and a viability, T/C (second compound 10 µM, first compound 3 µM) of 19.6%.
`COc1cc(C2c3cc4c(cc3C(OC3OC5COC(C)OC5C(O)C3O)C3COC(=O)C23)OCO4)cc(OC)c1O` (stereo unspecified) + Cc1cccc(N(C)C(=O)C2C(O)CCN2c2nc(C)cc(C(F)(F)F)c2C#N)c1 was tested, and the IC50 (second compound 0.0316 µM) was 9540 nM, the IC50 (second compound 0.1 µM) was > 10000 nM and the IC50 (second compound 0.316 µM) was > 10000 nM. For the same compound, the IC50 (second compound 1 µM) was > 10000 nM, the IC50 (second compound 3.16 µM) was > 10000 nM and the IC50 (second compound 10 µM) was > 10000 nM. The viability, T/C [1] was 87.6%, the viability, T/C [2] was 89.2% and the viability, T/C [3] was 102%. It also gave a viability, T/C [4] of 86.8%, a viability, T/C [5] of 75.6% and a viability, T/C [6] of 48.9%. For the same compound, the viability, T/C [7] was 98%, the viability, T/C [8] was 91.9% and the viability, T/C [9] was 107%. It also gave a viability, T/C [10] of 87.2%, a viability, T/C [11] of 68% and a viability, T/C [12] of 54.8%. The viability, T/C [13] was 94.6%, the viability, T/C [14] was 102% and the viability, T/C [15] was 101%. The viability, T/C [16] was 99.5%, the viability, T/C [17] was 70% and the viability, T/C [18] was 59.5%. For the same compound, the viability, T/C [19] was 107%, the viability, T/C [20] was 93.1% and the viability, T/C [21] was 91.6%. It also gave a viability, T/C [22] of 79.2%, a viability, T/C [23] of 76% and a viability, T/C [24] of 58%. It also gave a viability, T/C [25] of 98.5%, a viability, T/C [26] of 86.5% and a viability, T/C [27] of 88%. It also gave a viability, T/C [28] of 97.3%, a viability, T/C [29] of 74.8% and a viability, T/C [30] of 53.9%. It also gave a viability, T/C [31] of 84.5%, a viability, T/C [32] of 86.7% and a viability, T/C [33] of 86.1%. It also gave a viability, T/C [34] of 82.8%, a viability, T/C [35] of 60.2% and a viability, T/C [36] of 59.2%.

Source: PubChem BioAssay AID1963849 (Molecular Pharmacology Branch, DTP, NCI, 2024)
